Assays:
[1] = Antidiarrheal activity, castor oil test in rats (modified Niemegeers); assay type: in vivo, male Sprague-Dawley rats; details: for Antidiarrheal Activity ED50 (95% Confidence Limits) Castor Oil Test in Rats: 60 min; for ED50: Rattus norvegicus; for separation between antidiarrheal and analgetic activity (in words): from RAS; for RAS (Relative Antidiarrheal Specificity): Analgetic ED50 divided by the Antidiarrheal ED50, oral
Method: A modification of the castor oil test described by Niemegeers [Arzneim.-Forsch., 22, 516-518 (1972)] was used. Male Sprague-Dawley rats (180-220 g) were dosed orally (in one case, subcutaneously) with a test compound or vehicle 1 hour before receiving a standard dose of castor oil orally (3 ml/rat). The rats were individually caged and examined for the presence of diarrhea hourly. Control animals had 100% incidence of diarrhea 1 hour after administering the castor oil. The percentage of rats protected from diarrhea was calculated 1 hour after the castor oil. Six rats were used per dose level.
(§1) Morphine sulfate was dissolved in distilled water.

[2] = Suppression of withdrawal jumping due to abstinence in withdrawn morphine-dependent mice
[3] = Suppression of body weight loss due to abstinence in withdrawn morphine-dependent rats; details: oral administration, FIG. 1
[4] = Analgetic activity, radiant heat method (Rat Tail Flick Test); assay type: in vivo, male Sprague-Dawley rats; details: Table I, oral, rats; for ED50: Rattus norvegicus, read-out: Analgetic Activity Rat Tail Flick ED50 (95% Confidence Limits)
Method: Analgetic activity was determined by the radiant heat method (Rat Tail Flick Test) of D'Amour and Smith [J. Pharm. Exp. Ther., 72, 74-79 (1941)] in Sprague-Dawley male rats (140-180 g). An all or none response was used to determine the dose of test material which produced at least a 100 percent increase in predose response time in 50 percent of the test animals (ED50). The ED50 values were based on at least 3 doses per drug (6 rats per dose level) and calculated by means of the Finney Dose Response procedure [Finney, D. J., Probit Analysis, University Press, Cambridge, England (1971)].
as §1

[5] = high oral doses (40-60 mg); cited from earlier work
[6] = even in its salt forms; cited from earlier work
[7] = Table II, separate test, oral administration
[8] = Table II, d,l-Ia(1) subcutaneous, Ib(1) isomers oral
[9] = Table I, oral, rats, 1 hour after castor oil, read-out: Antidiarrheal Activity Castor Oil Test in Rats ED50 (95% Confidence Limits)

## CN1CC[C@]23CCC(=O)C[C@H]2[C@H]1Cc1ccc(O)cc13 [l-Ib(1), l-3-Hydroxy-N-methyl-7-oxomorphinan]
[1]; [7]
  Antidiarrheal Activity ED50 (95% Confidence Limits) Castor Oil Test in Rats: 0.64 (0.46-0.86)
[1]; [8]
  antidiarrheal potency (in words): most potent isomer

## CN1CC[C@]23CCC(=O)C[C@H]2[C@H]1Cc1ccc(O)cc13 [d-Ib(1), d-3-Hydroxy-N-methyl-7-oxomorphinan]
[1]; [7]
  Antidiarrheal Activity ED50 (95% Confidence Limits) Castor Oil Test in Rats: < 1

## COc1ccc2c3c1O[C@H]1C(=O)CC[C@@]4(O)[C@@H](C2)N(C)CC[C@]314 [Oxycodone]
[2]; 10 mg/kg po
  Percent Suppression of Withdrawal Jumping: 100%

## CN1CC[C@]23CCC(=O)C[C@H]2[C@H]1Cc1ccc(O)cc13 (relative stereo) [d,l-Ib(1), d,l-3-Hydroxy-7-oxo-N-methylmorphinan]
[3]
  prevention of body weight loss due to morphine withdrawal / ability to substitute for morphine (in words): no significant prevention of body weight loss
[2]; 9 mg/kg po
  Percent Suppression of Withdrawal Jumping: 0%
[2]; 27 mg/kg po
  Percent Suppression of Withdrawal Jumping: 0%
[2]; oral, doses as high as 27 mg/kg
  suppressant action on withdrawal jumping (in words): No suppressant action
[4]
  ED50: > 150 mg/kg
[1]; 1 h, Table II, separate test, oral administration, read-out: Antidiarrheal Activity ED50 (95% Confidence Limits) Castor Oil Test in Rats
  ED50: 1.08 mg/kg
[1]; [9]
  ED50: 1.41 mg/kg
[1]; oral, rats
  separation between antidiarrheal and analgetic activity (in words): excellent separation between antidiarrheal and analgetic activity

## CN1CC[C@]23CCC(=O)C[C@@H]2[C@H]1Cc1ccc(O)cc13 (relative stereo) [d,l-Ia(1), d,l-3-Hydroxy-7-oxo-N-methylisomorphinan]
[1]; sc, 1 h, Table II, separate test, subcutaneous administration, read-out: Antidiarrheal Activity ED50 (95% Confidence Limits) Castor Oil Test in Rats
  ED50: 0.56 mg/kg
[1]; [8]
  antidiarrheal potency (in words): potent antidiarrheal agent

## CCOC(=O)C1(c2ccccc2)CCN(CCC(C#N)(c2ccccc2)c2ccccc2)CC1 [Diphenoxylate]
[2]; oral dose of 9 mg/kg
  suppression of withdrawal jumping (in words): suppressed withdrawal jumping
[5]
  typical opioid effects: euphoria, suppression or morphine abstinence, and a morphine-like physical dependence after chronic administration
[4]
  ED50: 11.2 mg/kg
[6]
  solubility (in words): highly insoluble
[1]; rats
  RAS (Relative Antidiarrheal Specificity): 102
[1]; [9]
  ED50: 0.11 mg/kg
[1]; Table I, oral, rats
  antidiarrheal potency (in words): most potent antidiarrheal drug studied
[1]; oral, rats
  improvement of RAS over morphine: tenfold

## CN1CC[C@]23c4c5ccc(O)c4O[C@H]2[C@@H](O)C=C[C@H]3[C@H]1C5 [Morphine SO4]
[2]; sc, limits (0.9-3.1) printed on next line
  ED50, Suppression of Withdrawal Jumping: 1.8
[4]
  Analgetic Activity Rat Tail Flick ED50 (95% Confidence Limits): 30.5 (26.3-35.0) mg/kg
[1]; rats
  RAS (Relative Antidiarrheal Specificity): 14
[1]; Table I, oral, rats, 1 hour after castor oil
  Antidiarrheal Activity Castor Oil Test in Rats ED50 (95% Confidence Limits): 2.2 (1.5-3.1) mg/kg
[1]; oral, rats
  separation between antidiarrheal and analgetic activity (in words): poor separation between antidiarrheal and analgetic activity

Source: patent publication US4277605A, “Chemical compounds” (priority 1980, dated 1981)
